Assay results from patent publication US20230089867A1, “CYCLIC PENTAMER COMPOUNDS AS PROPROTEIN CONVERTASE SUBTILISIN/KEXIN TYPE 9 (PCSK9) INHIBITORS FOR THE TREATMENT OF METABOLIC DISORDER” (Novartis AG, priority 2018, published 2023).

Target: human PCSK9 (Homo sapiens, UniProt Q8NBP7)
Test: PCSK9 ligand binding TR-FRET assay (interference with binding of human PCSK9 to human LDLR)
Details: for Max % inhibition: PCSK9 FRET assay, efficacy (Amax), 100% = 1 uM unlabeled human PCSK9, 0% = DMSO; for IC50: TR-FRET, human PCSK9 Alexa Fluor 647 / human LDLR extracellular domain-Europium Kryptate, read-out: PCSK9 FRET Assay IC50
Summary of the method: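 Threefold compound dilutions were pre-incubated 30 min with PCSK9, after which 4 nM Europium Kryptate-tagged human LDLR ectodomain was added for a further 2 h.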

Chain of human PCSK9 (Q8NBP7 153-692): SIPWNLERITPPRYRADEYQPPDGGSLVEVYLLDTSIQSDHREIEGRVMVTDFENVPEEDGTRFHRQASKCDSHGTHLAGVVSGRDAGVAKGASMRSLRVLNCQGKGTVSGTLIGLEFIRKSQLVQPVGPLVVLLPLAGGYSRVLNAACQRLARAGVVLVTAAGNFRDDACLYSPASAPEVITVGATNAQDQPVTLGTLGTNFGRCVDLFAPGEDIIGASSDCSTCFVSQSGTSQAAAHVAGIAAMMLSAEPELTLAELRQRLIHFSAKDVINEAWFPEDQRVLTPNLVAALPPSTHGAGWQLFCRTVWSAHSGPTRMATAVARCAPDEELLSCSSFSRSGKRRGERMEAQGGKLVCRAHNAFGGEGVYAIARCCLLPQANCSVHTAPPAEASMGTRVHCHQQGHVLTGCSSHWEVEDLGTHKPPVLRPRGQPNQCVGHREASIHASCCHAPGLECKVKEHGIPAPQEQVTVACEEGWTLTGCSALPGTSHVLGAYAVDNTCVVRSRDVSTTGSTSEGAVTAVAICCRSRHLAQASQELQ
Chain of human PCSK9 (Q8NBP7 31-152 partner limits assumed): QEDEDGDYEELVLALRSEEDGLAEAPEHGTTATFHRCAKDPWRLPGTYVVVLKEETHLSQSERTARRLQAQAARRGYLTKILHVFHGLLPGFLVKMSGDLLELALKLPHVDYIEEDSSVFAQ

| Structure (SMILES) | Max % inhibition [%] | IC50 [nM] |
| --- | --- | --- |
| COC[C@@H]1NC(=O)[C@H](C)N(Cc2ccc(Cl)cc2Oc2ccc(-c3cnc(CN(C)C)n3C)cc2)C(=O)C[C@@H](CC2CC2)C(=O)N(C)[C@H]2CCCC[C@@H]2NC(=O)C[C@H](Cc2ccc(Cl)cc2)N(C)C1=O [Compound 290, (4S,7S,10S,14R,16aS,20aS)-11-(4-chloro-2-(4-(2-((dimethylamino)methyl)-1-methyl-1H-imidazol-5-yl)phenoxy)benzyl)-4-(4-chlorobenzyl)-14-(cyclopropylmethyl)-7-(methoxymethyl)-5,10,16-trimethylhexadecahydrobenzo[l][1,4,7,11,14]pentaazacyclooctadecine-2,6,9,12,15(3H)-pentaone] | 79.21 | 3.6 |
| COC[C@@H]1NC(=O)[C@H](CCN)N(Cc2ccc(Cl)cc2Oc2ccc(-c3cnc(CN(C)C)n3C)cc2)C(=O)C[C@@H](Cc2ccccc2)C(=O)N(C)[C@H]2CCCC[C@@H]2NC(=O)C[C@H](Cc2ccc(Cl)cc2)N(C)C1=O (single isomer, unassigned) [Compound 109] | 76.18 | 7.6 |
| COC[C@@H]1NC(=O)[C@H](C)N(Cc2ccc(Cl)cc2Oc2ccc(-n3cnc([C@@H](C)N(C)C)c3C)cc2)C(=O)C[C@@H](Cc2ccccc2)C(=O)N(C)[C@@H](C)[C@H](C)NC(=O)C[C@H](Cc2ccc(Cl)cc2)N(C)C1=O [Compound 270, (2S,5S,8S,12S,13S,16R)-16-benzyl-1-(4-chloro-2-(4-(4-((R)-1-(dimethylamino)ethyl)-5-methyl-1H-imidazol-1-yl)phenoxy)benzyl)-8-(4-chlorobenzyl)-5-(methoxymethyl)-2,7,12,13,14-pentamethyl-1,4,7,11,14-pentaazacyclooctadecane-3,6,10,15,18-pentaone] | 106.63 | 2.7 |
| COC[C@@H]1NC(=O)[C@H](C)N(Cc2ccc(Cl)cc2Oc2ccc(-n3nnc(CN(C)C)c3C)cc2)C(=O)C[C@@H](Cc2ccccc2)C(=O)N(C)[C@@H](C)CNC(=O)C[C@H](Cc2ccc(Cl)cc2)N(C)C1=O.O=CO [Compound 134, (2S,5S,8S,13S,16R)-16-benzyl-1-(4-chloro-2-(4-(4-((dimethylamino)methyl)-5-methyl-1H-1,2,3-triazol-1-yl)phenoxy)benzyl)-8-(4-chlorobenzyl)-5-(methoxymethyl)-2,7,13,14-tetramethyl-1,4,7,11,14-pentaazacyclooctadecane-3,6,10,15,18-pentaone formate] | 98.77 | 39.5 |
| CCC(CC)[C@@H]1CC(=O)N(Cc2ccc(Cl)cc2Oc2ccc(-c3cnc(CN(C)C)n3C)cc2)[C@@H](C)C(=O)N[C@@H](COC)C(=O)N(C)[C@@H](Cc2ccc(Cl)cc2)CC(=O)NC[C@H](C)N(C)C1=O [Compound 40, (2S,5S,8S,13S,16S)-1-(4-chloro-2-(4-(2-((dimethylamino)methyl)-1-methyl-1H-imidazol-5-yl)phenoxy)benzyl)-8-(4-chlorobenzyl)-5-(methoxymethyl)-2,7,13,14-tetramethyl-16-(pentan-3-yl)-1,4,7,11,14-pentaazacyclooctadecane-3,6,10,15,18-pentaone] | 104.99 | 99.6 |

These reach a lower IC50. Values come first.

| Max % inhibition [%] | IC50 [nM] | Structure (SMILES) |
| --- | --- | --- |
| 99.31 | 1.4 | COC[C@@H]1NC(=O)[C@H](C)N(Cc2ccc(Cl)cc2Oc2ccc(-c3cnc(CN(C)C)n3C)cc2)C(=O)C[C@@H](Cc2ccccc2)C(=O)N(C)C2CCOCC2NC(=O)CC(Cc2ccc(Cl)cc2)N(C)C1=O (stereo partly drawn) [Compound 61, (4S,7S,10S,14R)-14-benzyl-11-(4-chloro-2-(4-(2-((dimethylamino)methyl)-1-methyl-1H-imidazol-5-yl)phenoxy)benzyl)-4-(4-chlorobenzyl)-7-(methoxymethyl)-5,10,16-trimethyltetradecahydro-1H-pyrano[3,4-1][1,4,7,11,14]pentaazacyclooctadecine-2,6,9,12,15(3H)-pentaone] |
| 93.20 | 1.4 | COC[C@@H]1NC(=O)[C@H](C)N(Cc2ccc(Cl)cc2Oc2ccc(-c3cnc(CN4CCCC4)n3C)cc2)C(=O)C[C@@H](Cc2ccccc2)C(=O)N(C)C2CCOCC2NC(=O)C[C@H](Cc2ccc(Cl)cc2)N(C)C1=O (single isomer, unassigned) [Compound 274] |
| 59.34 | 0.7 | CC=CC[C@@H]1CC(=O)N(Cc2ccc(Cl)cc2Oc2ccc(-c3cnc(CN(C)C)n3C)cc2)[C@@H](C)C(=O)N[C@@H](COC)C(=O)N(C)[C@@H](Cc2ccc(Cl)cc2)CC(=O)N[C@H]2CCCC[C@@H]2N(C)C1=O [Compound 286, (4S,7S,10S,14R,16aS,20aS)-14-(but-2-en-1-yl)-11-(4-chloro-2-(4-(2-((dimethylamino)methyl)-1-methyl-1H-imidazol-5-yl)phenoxy)benzyl)-4-(4-chlorobenzyl)-7-(methoxymethyl)-5,10,16-trimethylhexadecahydrobenzo[l][1,4,7,11,14]pentaazacyclooctadecine-2,6,9,12,15(3H)-pentaone] |
| 99.12 | 1.7 | [2H]C([2H])([2H])N(Cc1ncc(-c2ccc(Oc3cc(Cl)ccc3CN3C(=O)C[C@@H](Cc4ccccc4)C(=O)N(C)[C@@H](C)CNC(=O)C[C@H](Cc4ccc(Cl)cc4)N(C)C(=O)[C@H](COC)NC(=O)[C@@H]3CC)cc2)n1C)C([2H])([2H])[2H] [Compound 49, (2S,5S,8S,13S,16R)-16-benzyl-1-(2-(4-(2-((bis(methyl-d3)amino)methyl)-1-methyl-1H-imidazol-5-yl)phenoxy)-4-chlorobenzyl)-8-(4-chlorobenzyl)-2-ethyl-5-(methoxymethyl)-7,13,14-trimethyl-1,4,7,11,14-pentaazacyclooctadecane-3,6,10,15,18-pentaone] |
| 101.64 | 1.8 | COC[C@@H]1NC(=O)[C@H](C)N(Cc2ccc(Cl)cc2Oc2ccc(-c3cnc(CN(C)C)n3C)cc2)C(=O)C[C@@H](Cc2ccccn2)C(=O)N(C)[C@@H](C)[C@H](C)NC(=O)C[C@H](Cc2ccc(Cl)cc2)N(C)C1=O [Compound 295, (2S,5S,8S,12S,13S,16R)-1-(4-chloro-2-(4-(2-((dimethylamino)methyl)-1-methyl-1H-imidazol-5-yl)phenoxy)benzyl)-8-(4-chlorobenzyl)-5-(methoxymethyl)-2,7,12,13,14-pentamethyl-16-(pyridin-2-ylmethyl)-1,4,7,11,14-pentaazacyclooctadecane-3,6,10,15,18-pentaone] |
| 99.22 | 1.2 | C=CC[C@@H]1CC(=O)N(Cc2ccc(Cl)cc2Oc2ccc(-c3cnc(CN(C)C)n3C)cc2)[C@@H](C)C(=O)N[C@@H](COC)C(=O)N(C)[C@@H](Cc2ccc(Cl)cc2)CC(=O)N[C@H]2CCCC[C@@H]2N(C)C1=O [Compound 110, (4S,7S,10S,14R,16aS,20aS)-14-allyl-11-(4-chloro-2-(4-(2-((dimethylamino)methyl)-1-methyl-1H-imidazol-5-yl)phenoxy)benzyl)-4-(4-chlorobenzyl)-7-(methoxymethyl)-5,10,16-trimethylhexadecahydrobenzo[l][1,4,7,11,14]pentaazacyclooctadecine-2,6,9,12,15(3H)-pentaone] |
